Source: patent publication US20110200993A1, “NEW TREATMENT OF AUTOIMMUNE CONDITIONS” (priority 2007, published 2011)

Tested on: system A transporters (including Slc38A1)
Assay: Effect of blocking system A transport on arthritis in mice
Assay type: in vivo
From the text: FIG. 3 is a graph showing the effect of blocking the system A transporters (including Slc38A1) on (A) mean arthritis score and (B) anti collagen antibody production. P=<0.05, n=20.
This confirms that disease susceptibility can be changed both by increased and decreased transporter activity.

SMILES: CNC(C)(C)C(=O)O [MeAIB]
- arthritis susceptibility: increases arthritis susceptibility
